Measurements as given in patent publication US9624161B2 (priority 2009, dated 2017).

How the values were obtained:
[1] = tested on: isolated canine Purkinje fibers; test: Action potential duration in isolated canine Purkinje fibers in vitro; details: 10 and 100 μM
Protocol: Compound IV exerts little or no in vitro inhibitory effects (IC50≧300 μM) on the hERG channel.

[2] = tested on: human peripheral blood lymphocytes; test: Chromosomal aberrations in human peripheral blood lymphocytes in vitro; format: cell-based; details: concentrations up to 200 μM
From the text: Compound IV was well-tolerated by rats and dogs after single and repeated oral administration (up to 28 days).

[3] = tested on: men with advanced prostate cancer; test: Study 2: Phase 2 trial in men with advanced prostate cancer, Compound IV 1000 or 2000 mg daily versus leuprolide depot; format: in vivo, human; details: for Castrated (%) at Day 28 / Castrated (%) on both Day 28 and Day 60 / No. Castrated at Day 28 / No. Castrated on both Day 28 and Day 60: ITT; for Subjects that achieved castration (total T<50 ng/dL) by Day 60: subjects that reached Day 60; for % Reduction on PSA at Day 28 / Mean Free T at Day 28 / Mean Total T at Day 28: subjects castrated on both day 28 and day 60; for Castration (%): patients receiving >14 days; for Median free testosterone: Day 120; for Median increase in SHBG: Day 90
Protocol: This was a prospective, randomized 1:1:1, Phase 2 open-label, multicenter, trial comprised of men with advanced prostate cancer (n=159) initiating ADT with either oral daily doses of 1000 mg Compound IV, oral daily doses of 2000 mg Compound IV, or leuprolide depot (Lupron Depot® 4 month). It was conducted according to the Declaration of Helsinki, approved by appropriate research ethics committees, and each patient provided signed informed consent prior to registration and randomization. Patient demographlics are outlined in Table 24.
The trial required each subject to remain on the study for at least 60 days. […] Subjects that achieved castration by day 60 continued for up to 360 days to assess the safety of Compound IV over this dosing duration and to assess the maintenance of total testosterone levels ≦50 ng/dL.
The major inclusion criteria for the trial were: Males between 45-80 years of age; ECOG ≦2; screening serum total testosterone ≧150 ng/dL; no prior ADT (medical or surgical) unless the subject had been treated with LHRH agent for ≦6 months duration and that treatment was ≧1 years prior to screening.
The primary endpoint of the clinical trial was the proportion of patients that achieve ≦50 ng/dL total testosterone by Day 60. Secondary efficacy endpoints evaluated included serum concentrations of free testosterone, PSA, SHBG, safety and tolerability of Compound IV, incidence and frequency of hot flashes, serum bone turnover markers [bone specific alkaline phosphatase (BSAP) and c-terminal telopeptide (CTX)] and IGF-1 levels, an indicator of insulin resistance.
All serum hormone and PSA measurements were performed by a central laboratory utilizing standard techniques. Serum total testosterone concentrations were determined using a validated liquid chromatography-tandem mass spectrometry (LC/MS-MS) method. This is the assay platform that is current utilized for total testosterone by most major laboratories and provides values which are more accurate at the lower levels of testosterone found in women, children, hypogonadal men, and men on ADT. The percent free testosterone was determined by equilibrium dialysis. Free testosterone concentrations were calculated as the product of (total testosterone by LC/MS/MS) and (free fraction by equilibrium dialysis). This combination of approaches is considered to be the gold standard with which to measure free testosterone with excellent accuracy and validity (sensitivity and specificity).
Hot flash assessments were performed utilising a standard instrument to measure the frequency and severity of hot flashes, and data were compiled at baseline, Day 28 and Day 90. The men reported as experiencing hot flashes were those indicating any in the period between the respective time point and the prior patient visit. CTX (pg/ml) assayed by an electrochemiluminescent immunoassay and BSAP (U/L) assayed by immunoenzymatic methodology were measured as indicators of bone turnover. Serum IGF-1 levels were measured by liquid chromatography/mass spectrometry (LC/MS) at the same time each day (within a +/−60 minute window).
Simple descriptive statistics and graphics were used to present the characteristics of the study population. One way Analysis of Variance (PROC GLM with CONTRAST statement) methods were used to compare total testosterone percent change from baseline to Day 28, Day 60 and Day 90. Kaplan Meier survival analysis was used to estimate the proportion of subjects that reached castrate levels by Day 60 in each treatment arm based upon time to total testosterone of ≦50 ng/dL. Fisher Exact tests were used to compare rate of hot flashes at Day 28 and Day 90 among the two Compound IV and the leuprolide arms. One way ANOVA methods were also used to compare CTX and BSAP changes from baseline to Day 120 between treatment groups. The intent-to-treat (ITT) population consisted of all randomized patients who received at least one dose of Compound IV or leuprolide depot. […]

[4] = tested on: treatment naïve male Cynomolgus monkeys; test: Suppression and recovery of androgen levels in intact male monkeys, 30 mg/kg oral for 7 days; format: in vivo, Cynomolgus monkey; set-up: Circulating androgen level (mean±SEM) / Circulating androgen level after recovery: unit not given here
Protocol: The effect of Compound IV on suppression and recovery of testosterone levels in intact male monkeys was evaluated in conjunction with an oral pharmacokinetic study. Three treatment naïve male Cynomolgus monkeys (2 to 3 years old) were administered Compound IV at 30 mg/kg daily by oral gavage for 7 consecutive days. Blood samples were collected and divided into serum and plasma for testosterone and Compound IV quantitative measurements, respectively.

[5] = 1000 mg Compound IV, baseline to Day 120
[6] = preliminary analysis, Compound IV 2000 mg daily (41 assessed) or Lupron Depot (49 assessed)

SMILES: O=C(c1ccc(O)c(F)c1)N(c1ccc(O)cc1)c1ccc(F)cc1 [Compound IV, 3-fluoro-N-(4-fluorophenyl)-4-hydroxy-N-(4-hydroxyphenyl)benzamide]
- APD50 [1]: dose-dependently decreased
- APD90 [1]: dose-dependently decreased
- Structural or numeric chromosomal aberrations [2]: did not induce
- Median free testosterone in castrate men (total testosterone ≦50 ng/dL) ([3]; 1000 mg): 0.4 pg/mL
- Castrated (%) at Day 28 ([3]; 1000 mg Compound IV (n = 53)): 49%
- Castrated (%) on both Day 28 and Day 60 ([3]; 1000 mg Compound IV (n = 53)): 30%
- No. Castrated at Day 28 ([3]; 1000 mg Compound IV (n = 53)): 26
- No. Castrated on both Day 28 and Day 60 ([3]; 1000 mg Compound IV (n = 53)): 16
- Subjects that achieved castration (total T<50 ng/dL) by Day 60 ([3]; 1000 mg Compound IV arm): 43.4%
- Bone specific alkaline phosphatase (BSAP) percentage change [3, 5]: −26.3%
- C-terminal telopeptides (CTX) percentage change [3, 5]: −55.3%
- % Reduction on PSA at Day 28 ([3]; 1000 mg Compound IV): 84%
- Mean Free T at Day 28 ([3]; 1000 mg Compound IV): 1.0 ± 0.8 pg/mL
- Mean Total T at Day 28 ([3]; 1000 mg Compound IV): 25 ± 15 ng/dL
- Castration (%) ([3]; 1000 mg QD, D28): 50%
- Castration (%) ([3]; 1000 mg QD, D60): 59.4%
- Castration (%) ([3]; 1000 mg QD, Ever): 61.5%
- Median free testosterone ([3]; 1000 mg arm): 0.4 pg/mL
- Subjects with a venous thromboembolism event (VTE) ([3]; 1000 mg dose arm): 9 subjects
- Median increase in SHBG ([3]; 1000 mg): 495%
- Median free testosterone in castrate men (total testosterone ≦50 ng/dL) ([3]; 2000 mg): 0.3 pg/mL
- Castrated (%) at Day 28 ([3]; 2000 mg Compound IV (n = 55)): 56%
- Castrated (%) on both Day 28 and Day 60 ([3]; 2000 mg Compound IV (n = 55)): 51%
- No. Castrated at Day 28 ([3]; 2000 mg Compound IV (n = 55)): 31
- No. Castrated on both Day 28 and Day 60 ([3]; 2000 mg Compound IV (n = 55)): 28
- Subjects that achieved castration (total T<50 ng/dL) by Day 60 ([3]; 2000 mg Compound IV arm): 63.6%
- Bone specific alkaline phosphatase (BSAP) percentage change ([3]; 2000 mg Compound IV, baseline to Day 120): −22.6%
- % Reduction on PSA at Day 28 ([3]; 2000 mg Compound IV): 73%
- Mean Free T at Day 28 ([3]; 2000 mg Compound IV): 0.7 ± 0.7 pg/mL
- Mean Total T at Day 28 ([3]; 2000 mg Compound IV): 19 ± 9 ng/dL
- Castration (%) ([3]; 2000 mg QD, D28): 31%
- Castration (%) ([3]; 2000 mg QD, D60): 79.6%
- Castration (%) ([3]; 2000 mg QD, Ever): 84.6%
- Median free testosterone ([3]; 2000 mg arm): 0.3 pg/mL
- Subjects with a venous thromboembolism event (VTE) ([3]; 2000 mg dose arm): 2 subjects
- Median increase in SHBG ([3]; 2000 mg): 583%
- Percentage of treated ADT naïve patients (castrate population) below the Free T cutoff of 0.5 pg/ml ([3]; 28 days on therapy): 28.3%
- Percentage of treated ADT naïve patients (castrate population) below the Free T cutoff of 0.5 pg/ml ([3]; 45 days on therapy): 50.9%
- Percentage of treated ADT naïve patients (castrate population) below the Free T cutoff of 0.5 pg/ml ([3]; 120 days on therapy): 58.1%
- Rate of hot flashes relative to that in the leuprolide treated group ([3]; Day 90 visits): ≤ 25%
- PSA level reached on average ([3]; Study 2 (FIG. 35)): < 0.2 µg/L
- Change in serum IGF-1 level ([3]; Study 2, 1000 mg daily (n = 53), Day 1 to Day 28): -75.2 ± 25.6 ng/mL
- Change in serum IGF-1 level ([3]; Study 2, 1000 mg daily (n = 53), Day 1 to Day 60): -73.7 ± 29.2 ng/mL
- Change in serum IGF-1 level ([3]; Study 2, 1000 mg daily (n = 53), Day 1 to Day 90): -73.1 ± 25.1 ng/mL
- Change in serum IGF-1 level ([3]; Study 2, 1000 mg daily (n = 53), Day 1 to Day 360): -35.2 ± 40.5 ng/mL
- Change in serum IGF-1 level ([3]; Study 2, 2000 mg daily (n = 55), Day 1 to Day 28): -78.6 ± 38.3 ng/mL
- Change in serum IGF-1 level ([3]; Study 2, 2000 mg daily (n = 55), Day 1 to Day 60): -77.7 ± 39.9 ng/mL
- Change in serum IGF-1 level ([3]; Study 2, 2000 mg daily (n = 55), Day 1 to Day 90): -72.7 ± 24.9 ng/mL
- Change in serum IGF-1 level ([3]; Study 2, 2000 mg daily (n = 55), Day 1 to Day 360): -33.4 ± 45.2 ng/mL
- Mean SHBG for PSA responders (>50% reduction) ([3]; Study 2, all patients (FIG. 37)): 399%+85
- Reduction in reported hot flashes ([3]; day 90): greater than 4 fold
- Increase in SHBG levels in men that responded ([3]; in vivo): 200-600%
- Number of Subjects that Experienced a Hot Flash [3, 6]: 2
- Percent of Subjects that Experienced a Hot Flash [3, 6]: 5%
- Induction of baseline SHBG ([3]; treatment naive patients (Study 2 and Study 5), after 28 days): 150-700%
- Patients with at least a 50% reduction in % FreeT ([3]; treatment naïve patients (Studies 2 and 5), after 7 days of therapy): 81%
- Patients with both at least a 50% reduction in % FreeT and a 50% reduction in PSA from baseline ([3]; treatment naïve patients (Studies 2 and 5), after a month): 80%
- Molar ratio of SHBG to Total T relative to leuprolide acetate treated patients ([3]; treatment naïve patients, after 28 days): 3-7 fold
- Drop in % FreeT ([3]; treatment naïve patients, day 28): 70%
- Circulating androgen level after recovery ([4]; 30 mg/kg daily oral 7 days, then 18-day drug-free recovery): 1757.7±369.5
- Decrease of circulating androgen levels compared to baseline ([4]; 30 mg/kg daily oral, 7 days, three monkeys): up to 47%
- Circulating androgen level (mean±SEM) ([4]; 30 mg/kg daily oral, Day 2): 997±104
- Circulating androgen level (mean±SEM) ([4]; 30 mg/kg daily oral, Day 6): 852±136
